Where a SMILES comes first, the peptide text is derived from it.
What was measured:
pathogenic fungi = settings: pure protein added to in vitro antifungal assay medium; cited from earlier work
[1] = tested on: Fusarium graminearum PH-1

Compound | Growth inhibition of pathogenic fungi in vitro (pathogenic fungi) | IC100 (concentration required for 100% inhibition of fungal growth) [1] | IC50 ([1]; 24 h) [µM]
Rs-AFP2: small cysteine-rich protein isolated from radish seed (QKLCQRPSGTWSGVCGNNNACKNQCIRLEKARHGSCNYVFPAHKCICYFPC; UniProt P30230 30-80, looked up) | inhibited the growth of many pathogenic fungi |  | 
Rs-AFP1: small cysteine-rich protein isolated from radish seed (QKLCERPSGTWSGVCGNNNACKNQCINLEKARHGSCNYVFPAHKCICYFPC; UniProt P69241 30-80, looked up) | inhibited the growth of many pathogenic fungi |  | 
C[C@H](NC(=O)CN)C(=O)N[C@@H](CS)C(=O)N[C@@H](Cc1c[nH]cn1)C(=O)N[C@@H](CCCNC(=N)N)C(=O)N[C@@H](CCC(N)=O)C(=O)NCC(=O)N[C@@H](Cc1ccccc1)C(=O)NCC(=O)N[C@@H](Cc1ccccc1)C(=O)N[C@@H](C)C(=O)N[C@@H](CS)C(=O)N[C@@H](Cc1ccccc1)C(=O)N[C@@H](CS)C(=O)N[C@@H](Cc1ccc(O)cc1)C(=O)N[C@@H](CCCCN)C(=O)N[C@@H](CCCCN)C(=O)N[C@@H](CS)C(=O)O [GMA-5C, GACHRQGFGFACFCYKKC] (H-GACHRQGFGFACFCYKKC-OH; N-terminus and C-terminus assumed) |  | about 24 μM | 6 to 12

Reference: patent US12404519B2 (priority 2013, dated 2025)
